Reference: paper PMC6407913, “DREADD Agonist 21 Is an Effective Agonist for Muscarinic-Based DREADDs in Vitro and in Vivo” (ACS Pharmacology & Translational Science, 2018)
Where a chain is given by its changes, count along the chain named. Where two headings read alike, the source gives them in different places.

Legend:
hM4Di [1] = biological target: T1, hM4Di (Homo sapiens, UniProt P08173, A203G/Y113C); test: whole-cell [3H]NMS competition binding
T1 sequence (P08173 1-479 Y113C/A203G): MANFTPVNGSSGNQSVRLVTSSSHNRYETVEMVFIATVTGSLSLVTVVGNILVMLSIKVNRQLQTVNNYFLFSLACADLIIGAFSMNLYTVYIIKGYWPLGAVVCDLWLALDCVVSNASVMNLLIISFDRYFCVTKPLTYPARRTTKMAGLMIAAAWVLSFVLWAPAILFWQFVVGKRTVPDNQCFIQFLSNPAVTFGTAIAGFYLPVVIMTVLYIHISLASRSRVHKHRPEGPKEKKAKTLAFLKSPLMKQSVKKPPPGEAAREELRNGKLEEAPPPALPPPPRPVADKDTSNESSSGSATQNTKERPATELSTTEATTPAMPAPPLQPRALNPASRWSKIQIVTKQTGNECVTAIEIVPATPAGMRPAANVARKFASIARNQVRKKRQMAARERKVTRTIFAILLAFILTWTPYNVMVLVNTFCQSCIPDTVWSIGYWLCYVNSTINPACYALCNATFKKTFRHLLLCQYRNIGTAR

hM1Dq [2] = biological target: T2, hM1Dq (Homo sapiens, UniProt P11229, A196G/Y106C); test: whole-cell [3H]NMS competition binding
T2 sequence (P11229 1-460 Y106C/A196G): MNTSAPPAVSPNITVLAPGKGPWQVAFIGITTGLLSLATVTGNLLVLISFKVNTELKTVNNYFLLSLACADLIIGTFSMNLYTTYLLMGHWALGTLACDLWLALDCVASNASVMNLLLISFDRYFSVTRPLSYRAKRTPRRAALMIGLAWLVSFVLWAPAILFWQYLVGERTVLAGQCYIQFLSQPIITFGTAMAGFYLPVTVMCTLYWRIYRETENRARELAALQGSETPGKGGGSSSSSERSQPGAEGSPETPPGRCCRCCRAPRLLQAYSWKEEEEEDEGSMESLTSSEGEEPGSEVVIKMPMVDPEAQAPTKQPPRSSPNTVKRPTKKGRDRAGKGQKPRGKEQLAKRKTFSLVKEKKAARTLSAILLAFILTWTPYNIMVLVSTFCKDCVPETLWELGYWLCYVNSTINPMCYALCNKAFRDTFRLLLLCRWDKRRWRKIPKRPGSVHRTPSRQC

hM1Dq [3] = biological target: T2, hM1Dq; test: IP-One accumulation assay
hM4Di [4] = biological target: T1, hM4Di; test: inhibition of isoproterenol-stimulated cAMP production; type: cell-based; parameters: expressed in transfected cells; conditions: inhibition of isoproterenol elevated cAMP, mean (±SEM)
hM4Di [5] = biological target: T1, hM4Di; test: ERK1/2 phosphorylation (pERK1/2) assay
hM1 [6] = biological target: T3, hM1 (Homo sapiens, UniProt P11229); test: IP-One accumulation assay; type: cell-based; conditions: wildtype hM1
T3 sequence (P11229 1-460): T2 sequence (P11229 1-460 Y106C/A196G) with C106Y, G196A

hM4 [7] = biological target: T4, hM4 (Homo sapiens, UniProt P08173); test: whole-cell [3H]NMS competition binding; conditions: hM4, FlpIn CHO cells, mean (±SEM)
T4 construct: HA (hemagglutinin); expressed in transfected cells
T4 sequence (P08173 1-479): T1 sequence (P08173 1-479 Y113C/A203G) with C113Y, G203A

[8] = cited from earlier work
hM1 [9] = biological target: T3, hM1; test: ERK1/2 phosphorylation (pERK1/2) assay; type: cell-based; conditions: wildtype hM1
hM1 [10] = biological target: T3, hM1; test: whole-cell [3H]NMS competition binding; conditions: hM1, FlpIn CHO cells, mean (±SEM)
hM1Dq [11] = biological target: T2, hM1Dq; test: ERK1/2 phosphorylation (pERK1/2) assay
[12] = test system: hM4Di expressed in PVH SIM1 neurons; test: food intake, hM4Di in PVH SIM1 neurons (Sim1-Cre mice)
hM3Dq = biological target: T5, hM3Dq (Homo sapiens, UniProt P20309, A239G/Y149C); test: Gq-mediated calcium release (FLIPR) assay; type: cell-based; conditions: CHO cells, mean ± SEM
T5 construct: expressed in transfected cells
T5 sequence (P20309 whole entry Y149C/A239G): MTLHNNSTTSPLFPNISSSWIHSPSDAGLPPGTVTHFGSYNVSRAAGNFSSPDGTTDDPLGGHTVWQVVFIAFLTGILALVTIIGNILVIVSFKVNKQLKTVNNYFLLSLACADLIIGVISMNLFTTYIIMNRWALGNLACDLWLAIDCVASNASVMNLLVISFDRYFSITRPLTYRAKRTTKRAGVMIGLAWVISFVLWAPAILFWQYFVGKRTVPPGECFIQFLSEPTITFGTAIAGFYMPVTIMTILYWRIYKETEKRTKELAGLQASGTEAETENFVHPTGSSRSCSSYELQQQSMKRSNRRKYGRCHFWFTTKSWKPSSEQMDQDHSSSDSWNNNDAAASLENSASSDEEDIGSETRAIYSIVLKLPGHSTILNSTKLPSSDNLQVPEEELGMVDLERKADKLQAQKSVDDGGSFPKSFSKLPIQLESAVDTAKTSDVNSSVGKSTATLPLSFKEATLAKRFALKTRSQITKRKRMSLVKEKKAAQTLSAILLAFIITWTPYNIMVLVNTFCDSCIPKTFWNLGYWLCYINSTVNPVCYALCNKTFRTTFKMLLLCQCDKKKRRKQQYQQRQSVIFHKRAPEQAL

[13] = test system: hM3Dq expressed in ARC AgRP neurons; test: food intake, hM3Dq in ARC AgRP neurons (Agrp-ires-Cre mice)
[14] = parameters: method as in PMID 28324647; conditions: following systemic administration of 10 mg/kg CNO; cited from earlier work
hM4 [15] = biological target: T4, hM4; test: inhibition of isoproterenol-stimulated cAMP production; type: cell-based; conditions: hM4, inhibition of isoproterenol elevated cAMP, mean (±SEM)
[16] = brain and plasma exposure after i.p. administration; type: in vivo, mice; conditions: i.p. 0.1, 1 and 10 mg/kg, 30 min after administration

## CC(=O)OCC[N+](C)(C)C [ACh, acetylcholine]
hM4Di [1]; hM4Di vs hM4
  reduction in binding affinity at hM4Di vs wildtype: > 10 fold

## C[N+]1([O-])CCN(C2=Nc3cc(Cl)ccc3Nc3ccccc32)CC1 [CNO, clozapine-N-oxide]
hM1Dq [2]; hM1Dq vs hM1
  higher binding affinity at hM1Dq than at wildtype hM1: > 10 fold
hM1Dq [2]; hM1Dq, FlpIn CHO cells, [3H]-NMS, mean (±SEM)
  pKi: 6.74 (±0.10) N = 9
hM1Dq [3]; hM1Dq, CHO cells, mean (±SEM)
  pEC50 IP1: 8.61 (±0.03) N = 10
hM4Di [4]
  pEC50 cAMP: 7.29 (±016) N = 4
hM4Di [5]; hM4Di, CHO cells, mean (±SEM)
  pEC50 pERK: 6.89 (±0.12) N = 3
hM1 [6]
  agonist activity in IP1 assay: no agonist activity
hM4 [7]
  pKi: 4.85 (±0.05) N = 3
[8]; humans, nonhuman primates and guinea pigs
  metabolic transformation to clozapine: approximately 10%
[8]; rodents
  metabolic transformation to clozapine: a few percent
hM1 [9]
  agonist activity in pERK1/2 assay: no agonist activity
hM1 [10]
  pKi: 5.10 (±0.03) N = 7
hM4Di [1]; hM4Di vs hM4
  higher binding affinity at hM4Di than at wildtype hM4: > 10 fold
hM4Di [1]; hM4Di, FlpIn CHO cells, [3H]-NMS, mean (±SEM)
  pKi: 6.30 (±0.22) N = 3
hM1Dq [11]; hM1Dq, CHO cells, mean (±SEM)
  pEC50 pERK: 7.70 (±0.25) N = 11
[12]; SIM1-Cre mice with AAV-DIO-hM4Di-mCherry, i.p.
  food intake, light cycle, sated mice: increases feeding behavior in sated mice
[12]; wildtype (non-Cre-expressing) littermates injected with AAV-DIO-hM4Di-mCherry
  food intake in control mice: neither C21 nor CNO ligand influenced food intake
hM3Dq
  pEC50 calcium mobilization: 7.26±0.07
[13]; AgRP-ires-Cre mice with AAV-DIO-hM3Dq-mCherry, i.p.
  food intake, light cycle, sated mice: increases feeding behavior in sated mice
[13]; wildtype (non-Cre-expressing) littermates injected with AAV-DIO-hM3Dq-mCherry
  food intake in control mice: neither C21 nor CNO affected feeding behavior

## Clc1ccc2c(c1)N=C(N1CCNCC1)c1ccccc1N2 [NDMC, N-desmethylclozapine]
[14]
  level in cerebrospinal fluid (CSF): 43 nM

## CN1CCN(C2=Nc3cc(Cl)ccc3Nc3ccccc32)CC1 [clozapine, reference compound]
[14]
  level in cerebrospinal fluid (CSF): 34 nM

## CN1CCN(C2=Nc3ccccc3Cc3ccccc32)CC1 [perlapine]
hM1Dq [2]
  Ki: 26.3 nM
hM1Dq [3]
  EC50: 4.17 nM
hM4Di [4]
  EC50: 63.1 nM
hM4Di [5]
  EC50: 53.7 nM
hM1 [6]
  agonist activity in IP1 assay: no agonist activity
hM4 [7]
  Ki: 263 nM
hM1 [9]
  agonist activity in pERK1/2 assay: no agonist activity
hM1 [10]
  Ki: 91.2 nM
hM4Di [1]
  Ki: 67.6 nM
hM1Dq [11]
  EC50: 158 nM
hM4 [15]
  EC50: 56.2 nM
[16]
  brain and plasma levels: measurable brain and plasma levels
  metabolism to clozapine: no evidence of metabolism to clozapine
hM3Dq; read-out: pEC50 calcium mobilization (converted)
  EC50: 8.32 nM
